Results from patent US20260138976A1 (Hoffmann-La Roche Inc., priority 2022, published 2026).

Experiments:
primary human T-cells [1] = assay: Proliferation assay (5 days, CellTiter-Glo, CD3-stimulated T-cells); type: cell-based; settings: for Emax proliferation (% activation): CD3 condition, normalised to DMSO (neutral) and 20 μM reference compound A1 = 100%; for EC50: Homo sapiens, T-cell, 120 h, CD3-stimulated primary human T-cells, 5 days, CellTiter-Glo, fitted sigmoidal curve, read-out: Tcell Proliferation CD3 EC50
Experimental: (§1) As readouts for T-cell activation, 1L2 secretion after 24 hours and proliferation after 5 days was measured. Increases in IL2 secretion and proliferation upon compound treatment were assessed as the % of the maximum of reference compound A1. WO 2016/139181 discloses reference compound A1 as example 70. As a counter screen and to make sure that no unwanted TCR-independent activation was triggered, PBS conditions were run for all compounds.
Expanded primary human T-cells are thawed and cultured in RPMI 1640 (Gibco, #61870-010)+5% human serum (HS, Sigma, #H3667)+1 mM Sodium Pyruvate (Gibco, #11360-039)+50 μM 2-mercaptoethanol (Gibco, #31350-010) and 1× Pen-Strep (Life Technologies, #15140122) medium at density of 2 Mio/ml for 3 hours in 5% CO2, 37° C. and 95% humidity. For coating of plates, PBS++ only or PBS++ with CD3 antibody (concentration depending on donor and determined by CD3 titrations) is added 100 μl/well to Poly-D Lysine coated 96-well plates. Plates are sealed and incubated at room temperature for 3 hours on a table-top rocking platform. After incubation, plates are washed once with PBS−− and filled with 40 μl/well culture medium only. Compounds are then added (see next section) to medium only plates. After 3 hours of culturing the T-cells, cells are filtered through a cell strainer (Miltenyi Biotech, #130-041-407), counted again and concentration is adjusted to 1.25 Mio/ml.
Cells are then seeded 80 μl/well to the 40 μl/well including dispensed compounds according to plate layout. By adding cells, compounds are further diluted 1:3, and resulting in 100 k cells/120 μl/well. After 48 hours 40 μl of supernatant is collected carefully from the top while not disturbing the cells. Cells are assessed for proliferation 5 days later by measuring […] using CellTiterGlo (Promega).
(§2) Compounds were added in a 5 or 6 pt dose response with the Tecan D300e Digital Dispenser, all conditions 3 times more concentrated than the end-concentration, since cells are added afterwards (80 μl cells to 40 μl prepared medium with treatment). The DR was starting at 20 μM or 10 μM final top concentration and a dilution factor of 3.333. The positive control was the reference compound A1 that was added in a dose response as well, additionally to 3 wells of only 20 μM representing the positive stimulator control. All wells were normalized with DMSO to a final concentration of 0.6% (0.2% end-concentration).
After 5 days, for detection of ATP which is directly proportional to the number of cells present per well, the CellTiter-Glo® 2.0 Reagent is used. After visual control for toxicity or precipitations of the tested compounds, the plates are equilibrated to room temperature for 45 minutes. CellTiter-Glo® 2.0 Reagent is equilibrated to room temperature as well. After equilibration, an equal amount of CellTiter-Glo reagent is added to the cells (80 μl/well) with an electronic multichannel pipette. Plates are placed on a rocking platform for 15 minutes at room temperature. After incubation, the bottom of the plates is sealed with backing tape. Luminescence is measured with PHERAstar FSX (interval time 0.5 sec, gain 3000, focal height 15 mm) and exported as CSV file for analysis in Genedata screener.
CD3 and PBS plates were analysed separately in Genedata Screener using Roche Normalization PCT_POS_CTRL with DMSO set as Neutral Control and 20 μM of the reference compound A1 set as Stimulator Control/100%.
For CD3 conditions EC50 and Emax of the fitted sigmoidal curve were reported. If no curve could be fitted, the EC50 was reported as blank field and the Emax was based on individual data points. […] Compounds which activate unstimulated cells (see IL2 measurements) or compounds which negatively affected viability were flagged.

primary human T-cells [2] = assay: IL2 secretion measurements (24 h, CD3-stimulated T-cells, PBS counter screen); type: cell-based; settings: for Emax IL2 (% activation): CD3 condition, normalised to DMSO (neutral) and 20 μM reference compound A1 = 100%; for EC50: Homo sapiens, T-cell, CD3-stimulated primary human T-cells, IL2 secretion, fitted sigmoidal curve, read-out: Tcell IL2 CD3 EC50
Experimental: as §1
Expanded primary human T-cells were thawed and cultured in RPMI 1640 (Gibco, #61870-010)+5% human serum (HS, Sigma, #H3667)+1 mM Sodium Pyruvate (Gibco, #11360-039)+50 μM 2-mercaptoethanol (Gibco, #31350-010) and 1× Pen-Strep (Life Technologies, #15140122) medium at density of 2 Mio/ml for 3 hours in 5% CO2, 37° C. and 95% humidity. For coating of plates, […] or PBS++ with CD3 antibody (concentration depending on donor and determined by CD3 titrations) was added 100 μl/well to Poly-D Lysine coated 96-well plates. Plates were sealed and incubated at room temperature for 3 hours on a table-top rocking platform. After incubation, plates were washed once with PBS−− and filled with 40 μl/well culture medium only. Compounds were then added (see next section) to medium only plates. After 3 hours of culturing the T-cells, cells were filtered through a cell strainer (Miltenyi Biotech, #130-041-407), counted again and concentration was adjusted to 1.25 Mio/ml.
Cells were then seeded 80 μl/well to the 40 μl/well including dispensed compounds according to plate layout. By adding cells, compounds were further diluted 1:3, and resulting in 100 k cells/120 μl/well. After 24 hours 40 μl of supernatant was collected carefully from the top while not disturbing the cells and transferred into a round bottom 96 well plate. Collected and frozen supernatant was used for detection of IL2 using the IL-2 Human ProQuantum Immunoassay Kit (Invitrogen) or using the Human IL-2 ELISA Kit (Thermo Fisher).
as §2
The immunoassay is done following the manufacturer's manual (Invitrogen, #A35603). Additional information: For the immunoassay, MicroAmp™ EnduraPlate™ Optical 384-Well plates are used. Frozen supernatant is thawed and centrifuged for 5 minutes at 1000×g, both steps at 4° C. After centrifugation, required sample amount is taken from the top, and in a separate LightCycler V-bottom plate (working plate) diluted with assay dilution buffer, dilution factor depending on the PBS or CD3 condition but at least 1:3. IL-2 standard and blanks are prepared in the same V-bottom plate, standard with a range of 0.0128-5000 pg/ml (extended version). After preparation, 5 μl of sample dilutions or standard/blanks are transferred to the optical 384-well plate (assay plate) and the 10 μl reaction protocol is being followed. For measurement, the QuantStudio 12K Flex system is used. Raw data is extracted and IL-2 concentrations are calculated with the Thermo Fisher online app (apps.thermofisher.com/apps/proquantum).
ELISA is done following the manufacturer's manual (Thermo Fisher Scientific, #88-7025-88). Additional information: For the ELISA Nunc MaxiSorp 96 well plates are used. Frozen supernatant is thawed and centrifuged for 5 minutes at 1000×g, both steps at 4° C. […]

SMILES | Emax proliferation (% activation) (primary human T-cells [1]) | EC50 (primary human T-cells [1]) | Emax IL2 (% activation) (primary human T-cells [2]) | EC50 (primary human T-cells [2])
CC(C)(C)c1nnc(-c2ccc3c(c2)N(Cc2ccc(-c4nc(C(F)(F)F)no4)cc2)C(=O)[C@@H](N)CS3(=O)=O)o1 [Example 26, (3R)-3-amino-7-(5-tert-butyl-1,3,4-oxadiazol-2-yl)-1,1-dioxo-5-[[4-[3-(trifluoromethyl)-1,2,4-oxadiazol-5-yl]phenyl]methyl]-2,3-dihydro-1λ^6,5-benzothiazepin-4-one] | 184 % activation | 302 nM | 155 % activation | 1600 nM
CC(C)(C)c1nnc(-c2ccc3c(c2)N(Cc2ccc(-c4nc(C5CC5)no4)cc2)C(=O)[C@@H](N)CS3(=O)=O)o1 [Example 29, (3R)-3-amino-7-(5-tert-butyl-1,3,4-oxadiazol-2-yl)-5-[[4-(3-cyclopropyl-1,2,4-oxadiazol-5-yl)phenyl]methyl]-1,1-dioxo-2,3-dihydro-1λ^6,5-benzothiazepin-4-one] | 208 % activation | 844 nM | 156 % activation | 956 nM
CC(C)(C)c1nnc(-c2ccc3c(c2)N(Cc2ccc(-c4cc(C(F)(F)F)on4)cc2)C(=O)[C@@H](N)CS3(=O)=O)o1 [Example 30, (3R)-3-amino-7-(5-tert-butyl-1,3,4-oxadiazol-2-yl)-1,1-dioxo-5-[[4-[5-(trifluoromethyl)isoxazol-3-yl]phenyl]methyl]-2,3-dihydro-1λ^6,5-benzothiazepin-4-one] | 139 % activation | 4360 nM | 117 % activation | 3510 nM
CC(C)(C)c1nnc(-c2ccc3c(c2)N(Cc2ccc(-c4cc(C(F)(F)F)no4)cc2)C(=O)[C@@H](N)CS3(=O)=O)o1 [Example 31, (3R)-3-amino-7-(5-tert-butyl-1,3,4-oxadiazol-2-yl)-1,1-dioxo-5-[[4-[3-(trifluoromethyl)isoxazol-5-yl]phenyl]methyl]-2,3-dihydro-1λ^6,5-benzothiazepin-4-one] | 83 % activation | 349 nM | 133 % activation | 906 nM
CC(C)(C#N)c1nnc(-c2ccc3c(c2)N(Cc2ccc(-c4ccc(C(F)F)cn4)cc2)C(=O)[C@@H](N)CS3(=O)=O)o1 [Example 40, 2-[5-[(3R)-3-amino-5-[[4-[5-(difluoromethyl)-2-pyridyl]phenyl]methyl]-1,1,4-trioxo-2,3-dihydro-1λ^6,5-benzothiazepin-7-yl]-1,3,4-oxadiazol-2-yl]-2-methyl-propanenitrile] | 118 % activation | 2480 nM | 105 % activation | 3790 nM
N[C@H]1CS(=O)(=O)c2ccc(-c3nnc(C4(N)CCCCC4)o3)cc2N(Cc2ccc(-c3noc(C4CCC(F)(F)C4)n3)cc2)C1=O (stereo partly drawn) [Example 44, (3R)-3-amino-7-[5-(1-aminocyclohexyl)-1,3,4-oxadiazol-2-yl]-5-[[4-[5-(3,3-difluorocyclopentyl)-1,2,4-oxadiazol-3-yl]phenyl]methyl]-1,1-dioxo-2,3-dihydro-1λ^6,5-benzothiazepin-4-one] | 124 % activation | 741 nM | 112 % activation | 1040 nM
CC(C)(C#N)c1nnc(-c2ccc3c(c2)N(Cc2ccc(-c4nc(C5CC5)no4)cc2)C(=O)[C@@H](N)CS3(=O)=O)o1 [Example 139, 2-[5-[(3R)-3-amino-5-[[4-(3-cyclopropyl-1,2,4-oxadiazol-5-yl)phenyl]methyl]-1,1,4-trioxo-2,3-dihydro-1λ^6,5-benzothiazepin-7-yl]-1,3,4-oxadiazol-2-yl]-2-methyl-propanenitrile] | 93 % activation | 1020 nM |  | 
N#CC1(c2nnc(-c3ccc4c(c3)N(Cc3ccc(-c5ccc(OC(F)(F)F)cn5)cc3)C(=O)[C@@H](N)CS4(=O)=O)o2)CCOC1 (stereo partly drawn) [Example 177, 3-[5-[(3R)-3-amino-1,1,4-trioxo-5-[[4-[5-(trifluoromethoxy)-2-pyridyl]phenyl]methyl]-2,3-dihydro-1λ^6,5-benzothiazepin-7-yl]-1,3,4-oxadiazol-2-yl]tetrahydrofuran-3-carbonitrile] | 101 % activation | 806 nM |  | 
N[C@H]1CS(=O)(=O)c2ccc(-c3nnc(C4(N)CC(F)(F)C4)o3)cc2N(Cc2ccc(-c3ccc(OC(F)(F)F)cn3)cc2)C1=O [Example 179] | 106 % activation | 936 nM |  | 
CN1CCC(C#N)(c2nnc(-c3ccc4c(c3)N(Cc3ccc(-c5ccc(OC(F)(F)F)cn5)cc3)C(=O)[C@@H](N)CS4(=O)=O)o2)CC1 [Example 180, 4-[5-[(3R)-3-amino-1,1,4-trioxo-5-[[4-[5-(trifluoromethoxy)-2-pyridyl]phenyl]methyl]-2,3-dihydro-1λ^6,5-benzothiazepin-7-yl]-1,3,4-oxadiazol-2-yl]-1-methyl-piperidine-4-carbonitrile] | 102 % activation | 651 nM |  | 
